Assay [1] concerns the target IDH1-R132H recombinant protein (Homo sapiens (Human), UniProt O75874, R132H). Description: IDH1-R132H enzymatic assay (NADPH consumption, diaphorase/resazurin readout). The format is biochemical. To be noted: inhibition of NADPH consumption, 30 nM IDH1-R132H; read-out: Enzyme IDH1 R132H IC50. The method, then:
(§1) Assays were performed in a 384-well black plate. An aliquot of 250 nL of compound was incubated with 10 μL of 30 nM IDH1-R132H or 10 nM IDH1-R132C recombinant protein in assay buffer (50 mM Tris pH=7.5, 150 mM NaCl, 5 mM MgCl2, 0.1% (w/v) Bovine Serum Albumin, and 0.01% Triton X-100) in each well at 25° C. for 15 minutes. After the plate was centrifuged briefly, an aliquot of 10 μL of 2 mM α-ketoglutarate and 20 μM NADPH solution prepared in assay buffer was then added to each well and the reaction was maintained at 25° C. for 45 minutes. An aliquot of 10 μL of diaphorase solution (0.15 U/mL diaphorase and 30 μM Resazurin in assay buffer) was added to each well. The plate was maintained at 25° C. for 15 minutes and then read on a plate reader with excitation and emission wavelengths at 535 nm and 590 nm, respectively. The IC50 of a given compound was calculated by fitting the dose response curve of inhibition of NADPH consumption at a given concentration with the four parameter logistic equation.

For assay [2], the target named is IDH1-R132C recombinant protein (Homo sapiens (Human), UniProt O75874, R132C). Briefly: IDH1-R132C enzymatic assay (NADPH consumption, diaphorase/resazurin readout). The format is biochemical. To be noted: inhibition of NADPH consumption, 10 nM IDH1-R132C; read-out: Enzyme IDH1 R132C IC50. On the procedure:
as §1
In general terms: Alamar Blue is a resazurin reagent that responds to reducing activity.

Chain of IDH1-R132C recombinant protein (O75874 whole entry R132C): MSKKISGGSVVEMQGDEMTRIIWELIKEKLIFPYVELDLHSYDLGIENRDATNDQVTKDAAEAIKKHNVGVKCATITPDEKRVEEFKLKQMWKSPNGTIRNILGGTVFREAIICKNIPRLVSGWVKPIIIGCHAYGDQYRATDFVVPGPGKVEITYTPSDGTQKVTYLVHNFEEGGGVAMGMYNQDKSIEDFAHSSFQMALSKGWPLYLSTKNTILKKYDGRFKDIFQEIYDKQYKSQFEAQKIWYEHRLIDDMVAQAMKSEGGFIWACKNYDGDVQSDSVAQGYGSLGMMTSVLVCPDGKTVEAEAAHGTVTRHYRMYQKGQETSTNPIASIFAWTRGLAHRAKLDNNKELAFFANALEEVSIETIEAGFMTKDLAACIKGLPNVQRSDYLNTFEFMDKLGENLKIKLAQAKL
Chain of IDH1-R132H recombinant protein (O75874 whole entry R132H): as the sequence (O75874 whole entry R132C) above, with C132H counted along it

Broadly, the IC50 is the concentration that gives 50% inhibition. Regarding `COc1cc2[nH]c(=O)c(C(C)Nc3ncc4c(n3)N(C)C(=O)OC4)cc2cc1Cl` (racemic) [Compound I-50, 6-chloro-7-methoxy-3-[1-({1-methyl-2-oxo-1H,2H,4H-pyrimido[4,5-d][1,3]oxazin-7-yl}amino)ethyl]-1,2-dihydroquinolin-2-one], the IC50 in assay [1] and in assay [2] was less than 0.1 µM each time.

Consider `O=c1[nH]c2ccc(Cl)cc2cc1CNc1cccc2ocnc12` [Compound I-1, 3-{[(1,3-benzoxazol-4-yl)amino]methyl}-6-chloro-1,2-dihydroquinolin-2-one], for which the half-inhibitory concentration (IC50) in assay [1] and in assay [2] was 0.1 to 1 µM each time.

For `O=c1ccc2cc(NCc3cc4cc(Cl)ccc4[nH]c3=O)ccc2o1` [Compound I-4, 6-chloro-3-{[(2-oxo-2H-chromen-6-yl)amino]methyl}-1,2-dihydroquinolin-2-one], the values for the IC50 in assay [1] and in assay [2] were 0.1 to 1 µM and greater than 10 µM, respectively.

For the compound `Cc1cc2cc(CNc3ccc4ncsc4c3)c(=O)[nH]c2cc1C` [Compound I-40, 3-{[(1,3-benzothiazol-6-yl)amino]methyl}-6,7-dimethyl-1,2-dihydroquinolin-2-one], the IC50 in assay [1] is greater than 10 µM.

On to `CC(C)(C)c1ccc2[nH]c(=O)c(CNc3ccc4[nH]ncc4c3)cc2c1` [Compound I-41, 6-tert-butyl-3-{[(1H-indazol-5-yl)amino]methyl}-1,2-dihydroquinolin-2-one], for which the IC50 in assay [1] lay within 1 to 10 µM.

`CC(=O)N1CCc2c1ccnc2N[C@@H](C)c1cc2cc(Cl)ccc2[nH]c1=O` [Compound I-42, 3-[(1S)-1-({1-acetyl-1H,2H,3H-pyrrolo[3,2-c]pyridin-4-yl}amino)ethyl]-6-chloro-1,2-dihydroquinolin-2-one]: the results for the IC50 in assay [1] and in assay [2] were 0.1 to 1 µM and 1 to 10 µM, respectively.

On to `C[C@H](Nc1nccc2c1CCN2S(C)(=O)=O)c1cc2cc(Cl)ccc2[nH]c1=O` [Compound I-43, 6-chloro-3-[(1S)-1-({1-methanesulfonyl-1H,2H,3H-pyrrolo[3,2-c]pyridin-4-yl}amino)ethyl]-1,2-dihydroquinolin-2-one], for which, in assay [1], the IC50 was in the range of 1 to 10 µM.

In the case of `CC(=O)N1CCOc2c1ccnc2N[C@@H](C)c1cc2cc(Cl)ccc2[nH]c1=O` [Compound I-44, 3-[(1S)-1-({1-acetyl-1H,2H,3H-pyrido[3,4-b][1,4]oxazin-5-yl}amino)ethyl]-6-chloro-1,2-dihydroquinolin-2-one], the values for the half-maximal inhibitory concentration (IC50) in assay [1] and in assay [2] were 1 to 10 µM and greater than 10 µM, respectively.

In the case of `C[C@H](Nc1ncc2cn[nH]c2n1)c1cc2cc(Cl)ccc2[nH]c1=O` [Compound I-45, 6-chloro-3-[(1S)-1-({1H-pyrazolo[3,4-d]pyrimidin-6-yl}amino)ethyl]-1,2-dihydroquinolin-2-one], the concentration for half-maximal inhibition (IC50) in assay [1] was in the range of 0.1 to 1 µM; in assay [2] it was 1 to 10 µM.

For the compound `CC(C)CN1C(=O)OCc2cnc(N[C@@H](C)c3cc4cc(Cl)ccc4[nH]c3=O)nc21` [Compound I-46, 6-chloro-3-[(1S)-1-{[1-(2-methylpropyl)-2-oxo-1H,2H,4H-pyrimido[4,5-d][1,3]oxazin-7-yl]amino}ethyl]-1,2-dihydroquinolin-2-one], the IC50 in assay [1] and in assay [2] was less than 0.1 µM throughout.

In the case of `C[C@H](Nc1ncc2c(n1)N(C)C(=O)OC2)c1cc2cc(Cl)ccc2[nH]c1=O` [Compound I-47, 6-chloro-3-[(1S)-1-({1-methyl-2-oxo-1H,2H,4H-pyrimido[4,5-d][1,3]oxazin-7-yl}amino)ethyl]-1,2-dihydroquinolin-2-one], the half-inhibitory concentration (IC50) in assay [1] and in assay [2] was less than 0.1 µM each time.

Regarding `C[C@H](Nc1ncc2c(n1)N(C)C(=O)OC2)c1cc2cc(Cl)c(OCc3ccccn3)cc2[nH]c1=O` [Compound I-48, 6-chloro-3-[(1S)-1-({1-methyl-2-oxo-1H,2H,4H-pyrimido[4,5-d][1,3]oxazin-7-yl}amino)ethyl]-7-(pyridin-2-ylmethoxy)-1,2-dihydroquinolin-2-one], the half-maximal inhibitory concentration (IC50) in assay [1] and in assay [2] was less than 0.1 µM throughout.

For the compound `C[C@H](Nc1ncc2c(n1)NC(=O)OC2)c1cc2cc(Cl)ccc2[nH]c1=O` [Compound I-49, 6-chloro-3-[(1S)-1-({2-oxo-1H,2H,4H-pyrimido[4,5-d][1,3]oxazin-7-yl}amino)ethyl]-1,2-dihydroquinolin-2-one], the half-maximal inhibitory concentration (IC50) was less than 0.1 µM in assay [1] and 0.1 to 1 µM in assay [2].

Consider `COc1cc2[nH]c(=O)c([C@H](C)Nc3ncc4c(n3)N(C)C(=O)OC4)cc2cc1Cl` [Compound I-51, 6-chloro-7-methoxy-3-[(1S)-1-({1-methyl-2-oxo-1H,2H,4H-pyrimido[4,5-d][1,3]oxazin-7-yl}amino)ethyl]-1,2-dihydroquinolin-2-one], for which the IC50 in assay [1] and in assay [2] was less than 0.1 µM each time.

`COc1cc2[nH]c(=O)c([C@@H](C)Nc3ncc4c(n3)N(C)C(=O)OC4)cc2cc1Cl` [Compound I-52, 6-chloro-7-methoxy-3-[(1R)-1-({1-methyl-2-oxo-1H,2H,4H-pyrimido[4,5-d][1,3]oxazin-7-yl}amino)ethyl]-1,2-dihydroquinolin-2-one]: the half-maximal inhibitory concentration (IC50) in assay [1] lay within 0.1 to 1 µM; in assay [2] it was 1 to 10 µM.

Take `C[C@@H](Nc1ncc2c(n1)N(C)C(=O)OC2)c1cc2cc(Cl)c(F)cc2[nH]c1=O` [Compound I-53, 6-chloro-7-fluoro-3-[(1R)-1-({1-methyl-2-oxo-1H,2H,4H-pyrimido[4,5-d][1,3]oxazin-7-yl}amino)ethyl]-1,2-dihydroquinolin-2-one]: the half-inhibitory concentration (IC50) was 1 to 10 µM in assay [1] and greater than 10 µM in assay [2].

Regarding `CC(C)Cn1c(=O)oc2cnc(N[C@@H](C)c3cc4cc(Cl)ccc4[nH]c3=O)nc21` [Compound I-55, 6-chloro-3-[(1S)-1-{[3-(2-methylpropyl)-2-oxo-2H,3H-[1,3]oxazolo[4,5-d]pyrimidin-5-yl]amino}ethyl]-1,2-dihydroquinolin-2-one], the half-maximal inhibitory concentration (IC50) in assay [1] and in assay [2] was less than 0.1 µM each time.

As for `C[C@H](Nc1ncc2oc(=O)[nH]c2n1)c1cc2cc(Cl)ccc2[nH]c1=O` [Compound I-56, 6-chloro-3-[(1S)-1-({2-oxo-2H,3H-[1,3]oxazolo[4,5-d]pyrimidin-5-yl}amino)ethyl]-1,2-dihydroquinolin-2-one], the figures for the IC50 in assay [1] and in assay [2] were less than 0.1 µM and 0.1 to 1 µM, respectively.

Turning to `C[C@H](Nc1ncc2oc(=O)n(C)c2n1)c1cc2cc(Cl)ccc2[nH]c1=O` [Compound I-57, 6-chloro-3-[(1S)-1-({3-methyl-2-oxo-2H,3H-[1,3]oxazolo[4,5-d]pyrimidin-5-yl}amino)ethyl]-1,2-dihydroquinolin-2-one], the values for the IC50 in assay [1] and in assay [2] were less than 0.1 µM and 0.1 to 1 µM, respectively.

Turning to `C[C@H](Nc1ncc2[nH]c(=O)n(C)c2n1)c1cc2cc(Cl)ccc2[nH]c1=O` [Compound I-58, 6-chloro-3-[(1S)-1-[(9-methyl-8-oxo-8,9-dihydro-7H-purin-2-yl)amino]ethyl]-1,2-dihydroquinolin-2-one], the IC50 was 0.1 to 1 µM in assay [1] and 1 to 10 µM in assay [2].

Regarding `C[C@H](Nc1ncc2[nH]c(=O)[nH]c2n1)c1cc2cc(Cl)ccc2[nH]c1=O` [Compound I-59, 6-chloro-3-[(1S)-1-[(8-oxo-8,9-dihydro-7H-purin-2-yl)amino]ethyl]-1,2-dihydroquinolin-2-one], the IC50 in assay [1] and in assay [2] was 1 to 10 µM throughout.

In the case of `C[C@H](Nc1ncc2c(n1)NC(=O)C2)c1cc2cc(Cl)ccc2[nH]c1=O` [Compound I-60, 6-chloro-3-[(1S)-1-({6-oxo-5H,6H,7H-pyrrolo[2,3-d]pyrimidin-2-yl}amino)ethyl]-1,2-dihydroquinolin-2-one], the half-inhibitory concentration (IC50) in assay [1] was in the range of 0.1 to 1 µM; in assay [2], 1 to 10 µM.

`C[C@H](Nc1ncc2c(n1)N(C)C(=O)C2)c1cc2cc(Cl)ccc2[nH]c1=O` [Compound I-61, 6-chloro-3-[(1S)-1-({7-methyl-6-oxo-5H,6H,7H-pyrrolo[2,3-d]pyrimidin-2-yl}amino)ethyl]-1,2-dihydroquinolin-2-one]: the IC50 in assay [1] and in assay [2] was 0.1 to 1 µM in each case.

Take `C[C@H](Nc1ncc2c(n1)NC(=O)CC2)c1cc2cc(Cl)ccc2[nH]c1=O` [Compound I-62, 6-chloro-3-[(1S)-1-({7-oxo-5H,6H,7H,8H-pyrido[2,3-d]pyrimidin-2-yl}amino)ethyl]-1,2-dihydroquinolin-2-one]: the 50% inhibitory concentration (IC50) in assay [1] and in assay [2] was 1 to 10 µM each time.
